# Reference: patent US11377442B2, “Small molecule agonists and antagonists of NR2F6 activity” (ZANDER THERAPEUTICS, INC., priority 2016, dated 2022)
# Values joined by “and” are separate entries in the source; they are usually repeats but may differ in a detail not shown here. Equal entries are not always repeated. Where two headings read alike, the source gives them in different places.
# Tests used:
# [1] = PPB; type: in vitro ADME; settings: for recovery: plasma
# [2] = PK in rat plasma; type: in vivo; settings: for Fabs, %: PO 7.53 mg/kg vs IV 1.13 mg/kg
# [3] = pH stability; type: physicochemical
# [4] = Microsomal stability in mouse liver microsomes; type: in vitro ADME
# [5] = Caco-2 permeability assay; type: in vitro ADME; settings: human
# Protocol: (§1) A Caco-2 permeability assay was performed on Compound D136.
# [6] = test system: Caco-2; assay: Caco-2 permeability assay; type: in vitro ADME
# Protocol: as §1
# [7] = Stability in human plasma; type: in vitro ADME
# [8] = Microsomal stability in human liver microsomes; type: in vitro ADME
# [9] = PK in mice plasma; type: in vivo; settings: for Fabs, %: PO 3.18 mg/kg vs IV 1.12 mg/kg; for Vd: plasma, iv
# [10] = pH solubility; type: physicochemical; settings: for solubility: aqueous buffer, OD 250 nm
# [11] = Table 36, PO plasma, 7.53 mg/kg
# [12] = Table 38, IV plasma, 1.13 mg/kg
# [13] = rat, Table 36, PO plasma, 7.53 mg/kg
# [14] = rat, Table 38, IV plasma, 1.13 mg/kg
# [15] = Table 39, PO plasma, 3.18 mg/kg
# [16] = Table 41, IV plasma, 1.12 mg/kg
# [17] = mouse, Table 39, PO plasma, 3.18 mg/kg
# [18] = mouse, Table 41, IV plasma, 1.12 mg/kg
structure (smiles),measurement,setting,value
COCCN[C@H]1CS(=O)(=O)C[C@@H]1S(=O)(=O)c1ccc(Cl)cc1 [Compound D136],"%, Bound",[1]; Human,51.6%
same,"%, Free (50% pI)",[1]; Human,65.3%
same,"%, Free (recalc from 50% pI)",[1]; Human,48.4%
same,"Permeability, %",[1]; Human,94%
same,"%, Bound",[1]; Rat,52.0%
same,"%, Free (50% pI)",[1]; Rat,64.9%
same,"%, Free (recalc from 50% pI)",[1]; Rat,48.0%
same,"Permeability, %",[1]; Rat,94%
same,recovery,[1]; human,56.9%
same,recovery,[1]; rat,122%
same,K el,[2]; [11],0.75 h⁻¹
same,T_½,[2]; [11],55.8 min
same,AUV last,"[2]; Table 37, IV plasma, 1.13 mg/kg",239
same,AUV last,"[2]; Table 37, PO plasma, 7.53 mg/kg",197
same,"Fabs, %","[2]; Table 37, from AUCinf",12.9%
same,"Fabs, %","[2]; Table 37, from AUV last",12.3%
same,Cl/F,[2]; [12],80.23 mL/min/kg
same,K el,[2]; [12],2.11 h⁻¹
same,T_½,[2]; [12],19.8 min
same,bioavailability,"[2]; plasma, po, PK in mouse and dog, species of the value not stated, read-out: orally bioavailable (absorbance)",~33%
same,AUC(0-inf),[2]; [13],208 ng·h/mL
same,AUC(0-t),[2]; [13],197 ng·h/mL
same,CL/F,[2]; [13],866 mL/min/kg
same,Cmax,[2]; [13],165 ng/mL
same,MRT inf,[2]; [13],79.8 min
same,MRT last,[2]; [13],67.8 min
same,Tmax,[2]; [13],30 min
same,Vd/F,"[2]; rat, Table 36, PO plasma, 7.53 mg/kg, read-out: Vz/F",66.3 L/kg
same,AUC(0-inf),"[2]; rat, Table 37, IV plasma, 1.13 mg/kg",242 ng·h/mL
same,AUC(0-t),[2]; [14],239 ng·h/mL
same,Cmax,[2]; [14],524 ng/mL
same,MRT inf,[2]; [14],22.2 min
same,MRT last,[2]; [14],21 min
same,Tmax,[2]; [14],4.98 min
same,pH stability at pH2,[3]; pH2,extremely stable
same,pH stability at pH7,[3]; pH7,extremely stable
same,stability in presence of mouse liver microsomes,[4],Extremely stable
same,Papp A→B,"[5]; Caco-2, Mean",34.2 ×10⁻⁶ cm/s
same,Papp B→A,"[5]; Caco-2, Mean",51.1 ×10⁻⁶ cm/s
same,Papp A→B,"[5]; Caco-2, individual replicates",33.6 ×10⁻⁶ cm/s
same,Papp B→A,"[5]; Caco-2, individual replicates",47.9 ×10⁻⁶ cm/s
same,Caco-2 permeability,[6],highly permeable
same,Papp A-B,[6]; individual replicates,36.0 10^−6 cm/s and 33.1 10^−6 cm/s
same,Papp B-A,[6]; individual replicates,54.6 10^−6 cm/s and 50.9 10^−6 cm/s
same,stability in human plasma,[7],Stable
same,stability in presence of human liver microsomes,[8],Extremely stable
same,K el,[9]; [15],1.2 h⁻¹
same,T_½,[9]; [15],34.8 min
same,AUV last,"[9]; Table 40, IV plasma, 1.12 mg/kg",124
same,AUV last,"[9]; Table 40, PO plasma, 3.18 mg/kg",116
same,"Fabs, %","[9]; Table 40, from AUCinf",33.2%
same,"Fabs, %","[9]; Table 40, from AUV last",33.0%
same,K el,[9]; [16],1.16 h⁻¹
same,T_½,[9]; [16],36 min
same,Vd,"[9]; mouse, 1.12 mg/kg, Table 41, IV plasma, 1.12 mg/kg, read-out: Vss",2.41 L/kg
same,Vd,"[9]; mouse, 1.12 mg/kg, Table 41, IV plasma, 1.12 mg/kg, read-out: Vz",7.74 L/kg
same,AUC(0-inf),[9]; [17],117 ng·h/mL
same,AUC(0-t),[9]; [17],116 ng·h/mL
same,CL/F,[9]; [17],452 mL/min/kg
same,Cmax,[9]; [17],89.6 ng/mL
same,MRT inf,[9]; [17],64.8 min
same,MRT last,[9]; [17],62.4 min
same,Tmax,[9]; [17],15 min
same,Vd/F,"[9]; mouse, Table 39, PO plasma, 3.18 mg/kg, read-out: Vz/F",22.5 L/kg
same,AUC(0-inf),"[9]; mouse, Table 40, IV plasma, 1.12 mg/kg",124 ng·h/mL
same,AUC(0-t),[9]; [18],124 ng·h/mL
same,C0,[9]; [18],770 ng/mL
same,Cmax,[9]; [18],390 ng/mL
same,MRT inf,[9]; [18],16.2 min
same,MRT last,[9]; [18],15 min
same,Tmax,[9]; [18],4.98 min
same,clearance,[9]; [18],150 mL/min/kg
same,solubility,[10]; pH 2,660 µg/mL
same,solubility,[10]; pH 4,220 µg/mL
same,solubility,[10]; pH 7,190 µg/mL
same,solubility at pH2,[10]; pH2,soluble
same,solubility at pH4,[10]; pH4,soluble
same,solubility at pH7.4,[10]; pH7.4,soluble
